# Assays:
# [1] = Phase I dose escalation/expanded cohort study of oral foretinib in HCC patients: safety, dose-limiting toxicities, maximum tolerated dose; conditions: human, in vivo
# Procedure: Each treatment cycle will consist of 21 consecutive days. Subjects enrolled in this study will receive oral foretinib administered once daily. Blood samples for PK analysis will be obtained before and after dosing on Days 1 and 15 of Treatment Period 1 in both the Dose-Escalation and Expanded Cohort Phases. For subjects in the Expanded Cohort Phase, no dose will be administered on Days 2 and 3 of Treatment Period 1 to allow the pharmacokinetics of foretinib to be assessed over a 72 hour interval after the first dose. Subjects will continue to receive study drug until disease progression or withdrawal from study because of unacceptable toxicity or other reasons (e.g., withdrawal of consent, noncompliance). Disease progression is defined as objective disease progression according to mRECIST and/or clinical progression (e.g. emergence of significant new disease-related symptoms and/or significant deterioration of pre-existing disease-related symptoms requiring treatment; or deterioration of ECOG performance status by 2 units—see Appendix 3). For the purpose of the final analysis, the duration of the study is planned to be 2 years after enrollment is completed.
# Patients with measurable unresectable/metastatic HCC, no prior sorafenib or other multi-kinase inhibitors, ECOG PS 0-1, adequate organ function and Child-Pugh grade A are eligible for enrolment. […]
# [2] = tested on: unresectable/metastatic HCC; assay: Antitumour activity (time to progression by modified RECIST) in patients dosed at the maximum tolerated dose; assay type: in vivo, human; conditions: 38 evaluable patients at the maximum tolerated dose (30 mg OD); 95% confidence intervals (2.8, not achieved)
# From the text: To enable a more accurate description of the potential clinical benefit of foretinib in patients with HCC, the method of tumor evaluation was changed to incorporate the mRECIST criteria for HCC as proposed by Llovet et al (Llovet, et al. 2008 supra) and further described by Lencioni & Llovet (Lencioni & Llovet Modified RECIST (mRECIST) Assessment for Hepatocellular Carcinoma. Seminars in Liver Disease. 2010; 30:52-60) in addition to the standard RECIST assessment.
# The primary endpoint for assessing antitumor activity will be response rate (CR+PR) according to mRECIST (Lencioni, 2010), assessed by independent, central, radiological review, in subjects with advanced (unresectable and/or metastatic) HCC treated with foretinib at the maximum tolerated dose. […]
# Tumor response for subjects with measurable lesions should be assessed routinely as specified in the table below. Serial CT-scans (preferred) or MRI will be evaluated for response (CR or PR) and SD according to mRECIST (Lecioni, 2010) and RECIST 1.0 (Therasse, et al. New guidelines to evaluate the response to treatment in solid tumors. European Organization for Research and Treatment of Cancer, National Cancer Institute of the United States, National Cancer Institute of Canada. J Natl Cancer Inst. 2000; 92:205-16.). […]
# first-line advanced HCC = first-line advanced HCC patients treated with sorafenib; 95% CI (2.6, 3.6); cited from earlier work
SMILES,Dose-limiting toxicities [1],"Dose-limiting toxicities (renal failure, proteinuria), patients affected [1]",Median time-to-progression using modified-RECIST [2] [months],Median time to progression (first-line advanced HCC) [months]
"COc1cc2c(Oc3ccc(NC(=O)C4(C(=O)Nc5ccc(F)cc5)CC4)cc3F)ccnc2cc1OCCCN1CCOCC1 [foretinib, N^1-{3-fluoro-4-[(6-(methyloxy)-7-{[3-(4-morpholinyl)propyl]oxy}-4-quinolinyl)oxy]phenyl}-N^1-(4-fluorophenyl)-1,1-cyclopropanedicarboxamide]",no dose limiting toxicities were observed,2/6,4.5,–
"CNC(=O)c1cc(Oc2ccc(NC(=O)Nc3ccc(Cl)c(C(F)(F)F)c3)cc2)ccn1 [sorafenib, 4-[4-[[4-chloro-3-(trifluoromethyl)phenyl]carbamoylamino]phenoxy]-N-methyl-pyridine-2-carboxamide]",–,–,–,2.8

# — US20130252956A1, “METHODS OF TREATING CANCER” (priority 2010, published 2013)
